Key:
[1] = HBD acidity NMR score (ANMR), amide NH shifts in CDCl3 vs DMSO-d6; assay type: physicochemical
Source text: With this premise, we performed NMR studies to quantify the HBD solvent exposure of the amide protons using the HBD Acidity NMR score (ANMR)[47] and variable temperature studies (vt-NMR).[48] To note, although vt-NMR has originally been developed and applied to the study of peptides,[49] it is, together with the ANMR value, a well-established method for studying the intramolecular hydrogen bonding (IMHB) patterns in systems such as PROTACs[10],[12],[18],[26] as well as in ferrocene structures.[29],[50]−[53]
Considering the assumed flexibility of the ferrocene moiety, we anticipated the amide protons in AS4 next to the ferrocene moiety, i.e., N(3)-H and N(4)-H, to show greater shielding effects in CDCl3 as compared to DMSO-d6, consistently with a preference for the cis conformation. In contrast, in the presence of a strong hydrogen-bond acceptor solvent such as DMSO-d6, the intercalation of polar solvent molecules is likely to disrupt the IMHB, favoring an expanded trans conformation[50] of the substituent chains (Figure 4A). An initial analysis of the ^1H NMR spectra was obtained on samples in deuterated CDCl3 and DMSO-d6. […]
The chemical shift difference between the two solvents (Δδ) can be converted into hydrogen bond acidity (ANMR) for a quantitative assessment of IMHB. […]
Standard NMR experiments were performed at 298 K, while variable-temperature NMR experiments recorded spectra across a temperature range from 298 K to 328 K allowing a sufficient temperature equilibration time (10–15 min) before signal acquisition. All NOESY spectra for conformational analysis as well as the assignment spectra in methanol-d 4 were recorded on a 500 MHz Bruker Avance III equipped with a 5 mm QCI cryogenic probe. NOESY spectra were obtained from a sample at 1.25 mM in CDCl3 and 1.25 mM in methanol-d4, recorded at 298 K, using 16 transients, 1024 points in the direct dimension and 512 points in the indirect dimension, a relaxation delay of 1.5 s, and a mixing time of 700 ms. All other spectra used for signal assignment in CDCl3 were recorded on 500 MHz Bruker Avance NEO with a BBFO SmartProbe. […]

pVHL30 = target: T1, pVHL30 (Homo sapiens, UniProt P40337); design: method as in PMID 29018234; conditions: cited from earlier work
T1 construct: endogenous in cells; host or cells: HEK293 (ATCC)
T1 sequence (P40337 whole entry): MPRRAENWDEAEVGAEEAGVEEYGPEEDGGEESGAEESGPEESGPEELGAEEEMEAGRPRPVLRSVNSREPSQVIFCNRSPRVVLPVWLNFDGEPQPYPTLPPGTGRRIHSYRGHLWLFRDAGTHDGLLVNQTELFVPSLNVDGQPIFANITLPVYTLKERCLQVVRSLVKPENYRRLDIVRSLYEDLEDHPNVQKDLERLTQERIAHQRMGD

| ANMR N(1)-H [1] | Δδ N(1)-H [1] | Δδ N(2)-H [1] | SMILES | t1/2 (pVHL30 degradation half-life) (pVHL30; 1 μM, calculated from ref 38) | DC50 (pVHL30; reference value, CM11 only run at 1 μM here, read-out: DC50 ± S.D (pVHL30)) |
| --- | --- | --- | --- | --- | --- |
| 0.16 | 1.16 ppm | 0.15 ppm | Cc1ncsc1-c1ccc(CNC(=O)[C@@H]2C[C@@H](O)CN2C(=O)[C@@H](NC(=O)CCCCCOCCOCCCCCC(=O)Nc2cccc3c2C(=O)N(C2CCC(=O)NC2=O)C3=O)C(C)(C)C)cc1 (some centres unmarked) [14a] |  |  |
|  |  |  | Cc1ncsc1-c1ccc(CNC(=O)[C@@H]2C[C@@H](O)CN2C(=O)[C@@H](NC(=O)COCCOCCOCCOCCOCCOCC(=O)N[C@H](C(=O)N2C[C@H](O)C[C@H]2C(=O)NCc2ccc(-c3scnc3C)cc2)C(C)(C)C)C(C)(C)C)cc1 [CM11] | 85.1 min | < 100 nM |

— publication PMC12022980, “Rational Design of PROTAC Linkers Featuring Ferrocene as a Molecular Hinge to Enable Dynamic Conformational Changes” (Journal of the American Chemical Society, 2025)
